For six compounds, MIC results are on record in ChEMBL document CHEMBL1146193, “Increased genome instability in Escherichia coli lon mutants: relation to emergence of multiple-antibiotic-resistant (Mar) mutants caused by insertion sequence elements and large tandem genomic amplifications” (2007).

Holding throughout (type): functional
The subject of test [1] is Escherichia coli. The experiment in a line: Antimicrobial activity against Escherichia coli M013 mutant with AG100 delta-(lon-hupB-ppiD) dupIS5 genotype.
Test [2] concerns Escherichia coli. In words: Antimicrobial activity against Escherichia coli M043 mutant with AG100 lon4::IS186 marR::IS2 genotype.
In test [3] the test system is Escherichia coli. The experiment in a line: Antimicrobial activity against Escherichia coli M044 mutant with AG100 lon4::IS186 marR::IS genotype.
The subject of test [4] is Escherichia coli. In words: Antimicrobial activity against Escherichia coli M064 mutant with AG100 lon1::IS186 acrR::IS genotype.
Test [5] has as its system Escherichia coli. The experiment in a line: Antimicrobial activity against Escherichia coli M073 mutant with AG100 lon2::IS186 acrR::IS5 genotype.
In test [6] the test system is Escherichia coli. In words: Antimicrobial activity against Escherichia coli M074 mutant with AG100 lon2::IS186 acrR::IS genotype.
For test [7], the system named is Escherichia coli. The experiment in a line: Antimicrobial activity against Escherichia coli M083 mutant with AG100 lon4::IS186 acrR::IS1 genotype.
The test system of test [8] is Escherichia coli. The experiment in a line: Antimicrobial activity against Escherichia coli M084 mutant AG100 lon4::IS186 genotype.
In test [9] the test system is Escherichia coli. The experiment in a line: Antimicrobial activity against Escherichia coli M093 mutant with AG100 lon3::IS186 acrR::IS1 genotype.
Test [10] concerns Escherichia coli. In words: Antimicrobial activity against Escherichia coli M103 mutant with AG100 lon3::IS186 acrR-acrAB genotype.
Test [11] relates to Escherichia coli. The experiment in a line: Antimicrobial activity against Escherichia coli M104 mutant with AG100 dupIS3 genotype.
For test [12], the system named is Escherichia coli. The experiment in a line: Antimicrobial activity against Escherichia coli M114 mutant with AG100 lon4::IS186 marR::IS2 genotype.
For test [13], the system named is Escherichia coli. In words: Antimicrobial activity against Escherichia coli M124 mutant with AG100 lon4::IS186 acrR::IS genotype.
Test [14] deals with Escherichia coli. The experiment in a line: Antimicrobial activity against Escherichia coli AG112 mutant with AG100 marR genotype.
The subject of test [15] is Escherichia coli. In words: Antimicrobial activity against Escherichia coli AG112 mutant with marR genotype after 250 generations in 5 ug/ml presence of tetracycline.
The subject of test [16] is Escherichia coli. The experiment in a line: Antimicrobial activity against Escherichia coli AG112 mutant with marR genotype after 125 generations in absence of tetracycline.
For test [17], the system named is Escherichia coli. The experiment in a line: Antimicrobial activity against Escherichia coli AG100 mutant with argE3 thi-3 rpsL xyl mtl supE44 genotype.

Molecules are shown by their SMILES. Converted amounts (≈) assume the structure as drawn.

For orientation: MIC means the smallest concentration in the dilution series that meets the test's criterion for growth inhibition.

Take `CC1(C)S[C@@H]2[C@H](NC(=O)[C@H](N)c3ccccc3)C(=O)N2[C@H]1C(=O)O` [AMPICILLIN]: the MIC in test [1] was 3 µg/mL (≈ 8.59 µM); in test [2] it was 6 µg/mL (≈ 17.2 µM); in [3], 6 µg/mL (≈ 17.2 µM); in [4], 6 µg/mL (≈ 17.2 µM); in test [5] it was 6 µg/mL (≈ 17.2 µM); in test [6], 6 µg/mL (≈ 17.2 µM). The MIC in test [7] turned out to be 4 µg/mL (≈ 11.4 µM); in test [8] it was 3 µg/mL (≈ 8.59 µM); in test [9], 6 µg/mL (≈ 17.2 µM); in test [10], 4 µg/mL (≈ 11.4 µM); in [11] it was 3 µg/mL (≈ 8.59 µM); in test [12], 8 µg/mL (≈ 22.9 µM). For the same compound, the MIC was 3 µg/mL (≈ 8.59 µM) in [13], 6 µg/mL (≈ 17.2 µM) in test [14], 32 µg/mL in test [15] and 12 µg/mL (≈ 34.3 µM) in [16].

As for `O=C(N[C@H](CO)[C@H](O)c1ccc([N+](=O)[O-])cc1)C(Cl)Cl` [CHLORAMPHENICOL], the MIC in test [17] worked out at 4 µg/mL (≈ 12.4 µM); in test [2], 64 µg/mL (≈ 198 µM); in test [3] it was 32 µg/mL (≈ 99 µM); in test [4] it was 32 µg/mL (≈ 99 µM); in test [5], 32 µg/mL (≈ 99 µM); in [6] it was 48 µg/mL (≈ 149 µM). Besides, the minimal inhibitory concentration (MIC) in test [7] amounted to 32 µg/mL (≈ 99 µM); in test [9], 32 µg/mL (≈ 99 µM); in test [10], 24 µg/mL (≈ 74.3 µM); in test [11], 32 µg/mL (≈ 99 µM); in [12] it was 64 µg/mL (≈ 198 µM); in [13], 24 µg/mL (≈ 74.3 µM). Further, the results for the minimum inhibitory concentration (MIC) in [14], in test [15] and in [16] were 24 µg/mL (≈ 74.3 µM), 256 µg/mL and 24 µg/mL (≈ 74.3 µM), respectively.

For the compound `CCn1cc(C(=O)O)c(=O)c2ccc(C)nc21` [NALIDIXIC ACID], the MIC in test [17] was 6 µg/mL (≈ 25.8 µM); in test [2] it was 8 µg/mL (≈ 34.4 µM); in [3], 12 µg/mL (≈ 51.7 µM); in test [4] it was 12 µg/mL (≈ 51.7 µM); in [5] it was 8 µg/mL (≈ 34.4 µM); in [6] it was 8 µg/mL (≈ 34.4 µM). In addition, the MIC in test [7] came to 8 µg/mL (≈ 34.4 µM); in test [8], 6 µg/mL (≈ 25.8 µM); in test [9], 8 µg/mL (≈ 34.4 µM); in [10], 6 µg/mL (≈ 25.8 µM); in test [11] it was 8 µg/mL (≈ 34.4 µM); in [12] it was 8 µg/mL (≈ 34.4 µM). The minimal inhibitory concentration (MIC) amounted to 8 µg/mL (≈ 34.4 µM) in [13], 12 µg/mL (≈ 51.7 µM) in test [14], 192 µg/mL in [15] and 24 µg/mL (≈ 103 µM) in [16].

On to `CCn1cc(C(=O)O)c(=O)c2cc(F)c(N3CCNCC3)cc21` [NORFLOXACIN], for which the MIC was 0.02 µg/mL (≈ 0.0626 µM) in [17]; 0.13 µg/mL (≈ 0.407 µM) in [1]; 0.38 µg/mL (≈ 1.19 µM) in [2]; 0.25 µg/mL (≈ 0.783 µM) in test [3]; 0.19 µg/mL (≈ 0.595 µM) in test [4]; 0.19 µg/mL (≈ 0.595 µM) in test [5]. For the same compound, the MIC worked out at 0.19 µg/mL (≈ 0.595 µM) in test [6]; 0.25 µg/mL (≈ 0.783 µM) in [7]; 0.13 µg/mL (≈ 0.407 µM) in test [8]; 0.25 µg/mL (≈ 0.783 µM) in [9]; 0.25 µg/mL (≈ 0.783 µM) in [10]; 0.25 µg/mL (≈ 0.783 µM) in [11]. Further, the minimal inhibitory concentration (MIC) in [12] came out at 0.38 µg/mL (≈ 1.19 µM); in test [13], 0.25 µg/mL (≈ 0.783 µM); in test [14] it was 0.38 µg/mL (≈ 1.19 µM); in test [15] it was 2 µg/mL; in test [16], 0.75 µg/mL (≈ 2.35 µM).

In the case of `CO[C@H]1/C=C/O[C@@]2(C)Oc3c(C)c(O)c4c(O)c(c(/C=N/N5CCN(C)CC5)c(O)c4c3C2=O)NC(=O)/C(C)=C\C=C\[C@H](C)[C@H](O)[C@@H](C)[C@@H](O)[C@@H](C)[C@H](OC(C)=O)[C@@H]1C` [RIFAMPIN], the minimum inhibitory concentration (MIC) in test [17] was determined as 16 µg/mL (≈ 19.4 µM); in test [1], 16 µg/mL (≈ 19.4 µM); in [2], 24 µg/mL (≈ 29.2 µM); in [3] it was 24 µg/mL (≈ 29.2 µM); in test [4], 24 µg/mL (≈ 29.2 µM); in test [5], 24 µg/mL (≈ 29.2 µM). In addition, the MIC in test [6] came to 24 µg/mL (≈ 29.2 µM); in test [7], 16 µg/mL (≈ 19.4 µM); in test [8] it was 16 µg/mL (≈ 19.4 µM); in [9], 24 µg/mL (≈ 29.2 µM); in [10] it was 24 µg/mL (≈ 29.2 µM); in test [11], 16 µg/mL (≈ 19.4 µM). Also, the minimum inhibitory concentration (MIC) stood at 24 µg/mL (≈ 29.2 µM) in test [12] and 16 µg/mL (≈ 19.4 µM) in test [13].

Regarding `CN(C)[C@@H]1C(O)=C(C(N)=O)C(=O)[C@@]2(O)C(O)=C3C(=O)c4c(O)cccc4[C@@](C)(O)[C@H]3C[C@@H]12` [TETRACYCLINE], the MIC in test [17] came to 2 µg/mL (≈ 4.5 µM); in [1], 6 µg/mL (≈ 13.5 µM); in test [2] it was 16 µg/mL (≈ 36 µM); in test [3], 4 µg/mL (≈ 9 µM); in [4] it was 8 µg/mL (≈ 18 µM); in test [5], 12 µg/mL (≈ 27 µM). Further, the minimum inhibitory concentration (MIC) in test [6] turned out to be 4 µg/mL (≈ 9 µM); in [7], 4 µg/mL (≈ 9 µM); in [8] it was 4 µg/mL (≈ 9 µM); in [9] it was 4 µg/mL (≈ 9 µM); in test [10] it was 6 µg/mL (≈ 13.5 µM); in test [11] it was 6 µg/mL (≈ 13.5 µM). In addition, the MIC was 12 µg/mL (≈ 27 µM) in [12]; 6 µg/mL (≈ 13.5 µM) in test [13]; 8 µg/mL (≈ 18 µM) in test [14]; 128 µg/mL in [15]; 24 µg/mL (≈ 54 µM) in [16].
